Measurements: patent publication US9896551B2, “Phosphaphenanthrene-based compound and related preparation method and application” (Elite Electronic Material(Zhongshan) Co., Ltd., priority 2015, dated 2018)

Assays:
Assay type in all cases: physicochemical
[1] = Dissolution of the phosphaphenanthrene-based compound in different solvents; parameters: key: 1: “easily soluble”, which means the solute is dissolved with stirring at room temperature and the solution is clear; “soluble”, which means the solute is dissolved with stirring when being heated up to 120° C. and the solution is clear; 3: “insoluble”, which means the solute is not dissolve even being heated and stirred; conditions: about 5 grams in about 30 ml
Description: (§1) In addition, about 5 grams per serving of the phosphaphenanthrene-based compound are weighed and added to about 30 ml of solvents respectively. Stir with or without heating the solution to dissolve the solute. Observe the dissolution of the phosphaphenanthrene-based compound in different solvents, and the results are shown in Table 1, wherein the numeral “1” represents “easily soluble”, which means the solute is dissolved with stirring at room temperature and the solution is clear; the numeral “2” represents “soluble”, which means the solute is dissolved with stirring when being heated up to 120° C. and the solution is clear; the numeral “3” represents “insoluble”, which means the solute is not dissolve even being heated and stirred.
In addition, about 5 grams per serving of the phosphaphenanthrene-based compound (as shown in formula (XVI)) are weighed and added to about 30 ml of solvents respectively. Stir with or without heating to dissolve the solute. Observe dissolution of the phosphaphenanthrene-based compound in different solvents, and the results are shown in Table 2, wherein the numeral “1” represents “easily soluble”, which means the solute is dissolved with stirring at room temperature and the solution is clear; the numeral “2” represents “soluble”, which means the solute is dissolved with stirring when being heated up to […] and the solution is clear; the numeral “3” represents “insoluble”, which means the solute is not dissolve even being heated and stirred.

[2] = Test Example 1: solvent compatibility, observed by naked eyes; conditions: for Compatibility in solvent (precipitation, appearance of solution): stand for 12 hours; for Compatibility in solvent (solubility, appearance of solution): the initial state
Description: The phosphaphenanthrene-based compound of the embodiment 2, the conventional phosphaphenanthrene-based compound of the comparison 1 and the conventional phosphaphenanthrene-based compound of the comparison 2 are used as test samples of the test example 1. The test samples are respectively dissolved in toluene, methyl ethyl ketone, and acetone, so as to give a test to the compatibilities of the test samples in these solvents.

[3] = Dissolution of the phosphaphenanthrene-based compound in different solvents; parameters: key: 1: “easily soluble”, which means the solute is dissolved with stirring at room temperature and the solution is clear; “soluble”, which means the solute is dissolved with stirring when being heated up to […] and the solution is clear; 3: “insoluble”, which means the solute is not dissolve even being heated and stirred; conditions: Methyl ethyl ketone; about 5 grams in about 30 ml
Description: as §1
In addition, about 5 grams per serving of the phosphaphenanthrene-based compound (as shown in formula (XVI)) are weighed and added to about 30 ml of solvents respectively. Stir with or without heating to dissolve the solute. […]

Row | SMILES | Dissolution ([1]; Dimethylacetamide) | Dissolution ([1]; Dimethylformamide) | Dissolution ([1]; Toluene) | Compatibility in solvent (precipitation, appearance of solution) ([2]; Acetone) | Compatibility in solvent (solubility, appearance of solution) ([2]; Acetone) | Compatibility in solvent (precipitation, appearance of solution) ([2]; Methyl ethyl ketone) | Compatibility in solvent (solubility, appearance of solution) ([2]; Methyl ethyl ketone) | Compatibility in solvent (precipitation, appearance of solution) ([2]; Toluene) | Compatibility in solvent (solubility, appearance of solution) ([2]; Toluene) | Dissolution [3] | Dissolution ([1]; 1-Methoxy-2-propyl acetate (PMA)) | Dissolution ([1]; Cyclohexanone (CYC)) | Dissolution ([1]; Dimethylacetamide (DMAC)) | Dissolution ([1]; Methanol (MT)) | Dissolution ([1]; Methyl ethyl ketone (MEK)) | Dissolution ([1]; N,N-Dimethylformamide (DMF)) | Dissolution ([1]; Proprylene glycol monomethyl ether (PM)) | Dissolution ([1]; Toluene (TL))
1 | C=Cc1ccc(COC(c2ccc(C(OCc3ccc(C=C)cc3)P3(=O)Oc4ccccc4-c4ccccc43)cc2)P2(=O)Oc3ccccc3-c3ccccc32)cc1 (stereo not drawn) [Embodiment 2] | 1 | 1 | 1 | No | Soluble, clear | No | Soluble, clear | No | Soluble, clear | 2 | – | – | – | – | – | – | – | –
2 | C=Cc1ccc(COc2ccc(OCc3ccc(C=C)cc3)c(P3(=O)Oc4ccccc4-c4ccccc43)c2)cc1 (stereo not drawn) [Comparison 1] | – | – | – | Precipitated | Soluble, clear | Precipitated | Soluble, clear | No | Soluble, clear | – | – | – | – | – | – | – | – | –
3 | C=Cc1ccc(COc2ccc(-c3ccc(OCc4ccc(C=C)cc4)c(P4(=O)Oc5ccccc5-c5ccccc54)c3)cc2P2(=O)Oc3ccccc3-c3ccccc32)cc1 (stereo not drawn) [Comparison 2] | – | – | – | Precipitated | Soluble, clear | Precipitated | Soluble, clear | No | Soluble, clear | – | – | – | – | – | – | – | – | –
4 | O=P1(C(O)c2ccc(C(O)P3(=O)Oc4ccccc4-c4ccccc43)cc2)Oc2ccccc2-c2ccccc21 (stereo not drawn) [Embodiment 1] | – | – | – | – | – | – | – | – | – | – | 3 | 3 | 3 | 3 | 3 | 2 | 3 | 3
